# Measurements published in patent US12303497B2, “Anti-androgens for the treatment of metastatic castration-sensitive prostate cancer” (priority 2019, dated 2025).
# What was measured:
# BCRP = BCRP (Homo sapiens, UniProt Q9UNQ0); test: In vitro transporter substrate study
# CYP3A4 = CYP3A4 (Homo sapiens, UniProt P08684); test: Contribution of CYP3A4 in the metabolism of apalutamide; parameters: endogenous in cells; host or cells: human subjects, in vivo; conditions: estimated
# From the text: Metabolism is the main route of elimination of apalutamide.
# rat bone marrow = test: In vivo rat bone marrow micronucleus assay
# [1] = test system: multidrug and toxin extrusions (MATEs); test: In vitro transporter inhibition; assay type: in vitro ADME
# Chain of CYP3A4 (P08684 whole entry): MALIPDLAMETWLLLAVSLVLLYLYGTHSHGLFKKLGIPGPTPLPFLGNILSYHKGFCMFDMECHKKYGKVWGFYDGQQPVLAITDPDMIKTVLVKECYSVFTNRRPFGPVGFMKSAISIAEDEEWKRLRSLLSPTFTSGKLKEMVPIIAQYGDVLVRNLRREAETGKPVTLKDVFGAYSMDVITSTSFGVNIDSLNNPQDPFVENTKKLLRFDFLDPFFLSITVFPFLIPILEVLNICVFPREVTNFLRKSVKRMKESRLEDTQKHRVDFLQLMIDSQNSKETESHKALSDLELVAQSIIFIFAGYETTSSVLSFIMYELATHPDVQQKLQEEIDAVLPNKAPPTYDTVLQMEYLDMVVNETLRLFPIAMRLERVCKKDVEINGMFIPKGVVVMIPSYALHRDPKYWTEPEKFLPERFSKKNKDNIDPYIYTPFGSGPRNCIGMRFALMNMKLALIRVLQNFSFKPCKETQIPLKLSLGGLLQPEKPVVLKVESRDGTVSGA
# Chain of BCRP (Q9UNQ0 whole entry): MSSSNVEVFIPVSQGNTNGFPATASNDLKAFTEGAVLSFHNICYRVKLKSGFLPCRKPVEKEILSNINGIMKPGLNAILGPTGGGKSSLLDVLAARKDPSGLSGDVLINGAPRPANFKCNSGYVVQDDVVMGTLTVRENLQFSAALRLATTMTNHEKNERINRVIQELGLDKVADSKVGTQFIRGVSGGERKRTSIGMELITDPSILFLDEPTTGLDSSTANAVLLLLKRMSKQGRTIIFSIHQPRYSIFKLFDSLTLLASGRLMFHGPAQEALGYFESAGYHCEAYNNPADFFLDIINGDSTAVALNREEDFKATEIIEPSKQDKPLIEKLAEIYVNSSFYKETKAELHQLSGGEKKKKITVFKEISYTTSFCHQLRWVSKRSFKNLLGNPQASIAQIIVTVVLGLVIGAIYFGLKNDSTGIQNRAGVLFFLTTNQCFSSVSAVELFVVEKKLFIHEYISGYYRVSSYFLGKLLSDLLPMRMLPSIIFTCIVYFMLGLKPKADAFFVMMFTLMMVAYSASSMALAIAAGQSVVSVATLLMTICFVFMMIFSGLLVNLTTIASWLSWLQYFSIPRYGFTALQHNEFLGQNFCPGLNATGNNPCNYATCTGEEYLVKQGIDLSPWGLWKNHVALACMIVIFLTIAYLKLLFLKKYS
smiles,measurement,setting,value
"CNC(=O)c1ccc(N2C(=S)N(c3cnc(C#N)c(C(F)(F)F)c3)C(=O)C23CCC3)cc1F [Apalutamide, 4-[7-(6-cyano-5-trifluoromethylpyridin-3-yl)-8-oxo-6-thioxo-5,7-diazaspiro[3.4]oct-5-yl]-2-fluoro-N-methylbenzamide]",Substrate for BCRP,BCRP,not
same,Contribution of CYP3A4 in the metabolism of apalutamide,CYP3A4; at steady-state,37%
same,Contribution of CYP3A4 in the metabolism of apalutamide,CYP3A4; following single dose,13%
same,Genotoxicity,rat bone marrow,not genotoxic
same,Inhibition of MATEs,[1],inhibit
